The source of these data is patent US20260199323A1, “LIGAND COMPOUNDS FOR E3 UBIQUITIN LIGASE, PROTEIN DEGRADERS DEVELOPED ON BASIS OF LIGAND COMPOUNDS, AND USES THEREOF” (GLUETACS THERAPEUTICS (SHANGHAI) CO., LTD., priority 2021, published 2026).

Where two headings read alike, the source gives them in different places.

Common to all, as to assay type: cell-based, Human
The subject of one experiment is CAL-62. As to the kind of experiment: CCK-8 tumor cell proliferation, CAL-62. The settings on record: for IC50 for inhibiting the proliferation of tumor cells, CAL-62: 72 h; for IC50: Homo sapiens, Table 18, FAK inhibitor based, CAL-62, read-out: IC50 inhibiting proliferation of tumor cells, CAL-62. Further details: IC50 for inhibiting the proliferation of tumor cells, CAL-62: scale not given here. On the procedure: (§1) The tumor cells used herein were cultured in a cell culture medium listed in table 4 at 37° C. in an incubator with 5% CO2. Prior to experimentation, all cells used were correctly identified by STR profiling, and tested negative for mycoplasma through routine screenings.
(§2) IC50 values of the compounds of the present disclosure (including the compounds in Tables 1 and 3, and compounds of examples) were measured using the Meilun Cell Counting Kit-8 kit from Dalian Meilun Biotech Co., Ltd. Assay details are as follows: tumor cells were seeded in a 96-well plate at a density listed in Table 5. After 24 h, 100 μL of the inoculated cells were treated with 0.5 μL of the compounds of the present disclosure (including the compounds in Tables 1 and 3, and compounds of examples) at 10 different successively decreasing concentrations (starting at the highest concentration of 10 μM; 5-fold serial dilutions). After the cells were treated with the compounds of the present disclosure for a period of time, the cell viability detection reagent was added to the culture medium for cell viability assessment according to the instructions provided with the CCK-8 kit. […] The growth inhibition of the compounds of the present disclosure on cells was plotted by Prism Graphpad software, and the IC50 values of the compounds of the present disclosure were calculated therefrom.

For the next experiment, the system named is CCRF-CEM. As to the kind of experiment: CCK-8 tumor cell proliferation, CCRF-CEM. Further details: IC50 for inhibiting the proliferation of tumor cells, CCRF-CEM: scale not given here. The settings on record: for IC50 for inhibiting the proliferation of tumor cells, CCRF-CEM: 96 h. On the procedure:
as §1, §2

The subject of the next experiment is SR. Briefly: CCK-8 tumor cell proliferation, SR. To be noted: for IC50: Homo sapiens, SR, read-out: IC50 inhibiting proliferation of tumor cells, SR. On the procedure:
as §1, §2

The test system of the next experiment is MDA-MB-231. Briefly: CCK-8 tumor cell proliferation, MDA-MB-231. To be noted: Homo sapiens; Table 18, FAK inhibitor based; MDA-MB-231; read-out: IC50 inhibiting proliferation of tumor cells, MDA-MB-231. On the procedure:
as §1, §2

Where [1] appears, read: Table 12, designed based on CDK9 inhibitors.

On to `COc1cc(Nc2c(C#N)cnc3cc(OCCCN4CCN(Cc5ccc6c(c5)CN(C5CCC(=O)NC5=O)C6=O)CC4)c(OC)cc23)c(Cl)cc1Cl` (stereo not drawn) [GT-02968, 4-((2,4-dichloro-5-methoxyphenyl)amino)-7-(3-(4-((2-(2,6-dioxopiperidin-3-yl)-1-oxoisoindolin-5-yl)methyl)piperazin-1-yl)propoxy)-6-methoxyquinoline-3-carbonitrile], for which the “IC50 for inhibiting the proliferation of tumor cells, CAL-62” value in the experiment with CAL-62 (Table 13, designed based on BCR-ABL inhibitors) is on record as “A+”. `Cc1sc2c(c1C)C(c1ccc(Cl)cc1)=N[C@@H](CC(=O)NCc1ccc3c(c1)CN(C1CCC(=O)NC1=O)C3=O)c1nnc(C)n1-2` (stereo partly drawn) [GT-03378, 2-((S)-4-(4-chlorophenyl)-2,3,9-trimethyl-6H-thieno[3,2-f][1,2,4]triazolo[4,3-a][1,4]diazepin-6-yl)-N-((2-(2,6-dioxopiperidin-3-yl)-1-oxoisoindolin-5-yl)methyl)acetamide]: the “IC50 for inhibiting the proliferation of tumor cells, CCRF-CEM” value with CCRF-CEM (Table 16, designed based on BET inhibitors) is “A+”. Regarding `COc1cc(N2CCC(N(C)Cc3ccc4c(c3)C(=O)N(C3CCC(=O)NC3=O)C4=O)CC2)ccc1Nc1ncc(Cl)c(Nc2ccccc2P(C)(C)=O)n1` (stereo not drawn) [GT-03602, 5-(((1-(4-((5-chloro-4-((2-(dimethylphosphoryl)phenyl)amino)pyrimidin-2-yl)amino)-3-methoxyphenyl)piperidin-4-yl)(methyl)amino)methyl)-2-(2,6-dioxopiperidin-3-yl)isoindoline-1,3-dione], the IC50 in the experiment with SR (Table 15, ALK inhibitor based) fell in the range of 50 to 100 nM. For the compound `CN(Cc1ccc2c(c1)CN(C1CCC(=O)NC1=O)C2=O)C1CCN(c2ccc(Nc3ncc(C(F)(F)F)c(NCc4cccc(N(C)S(C)(=O)=O)c4)n3)cc2)CC1` (stereo not drawn) [GT-03677, N-(3-(((2-((4-(4-(((2-(2,6-dioxopiperidin-3-yl)-1-oxoisoindolin-5-yl)methyl)(methyl)amino)piperidin-1-yl)phenyl)amino)-5-(trifluoromethyl)pyrimidin-4-yl)amino)methyl)phenyl)-N-methylmethanesulfonamide], the IC50 in the experiment on MDA-MB-231 is less than 50 nM. For the compound `CN(c1cccc(CNc2nc(Nc3ccc(N4CCC(N5CCN(Cc6ccc7c(c6)CN(C6CCC(=O)NC6=O)C7=O)CC5)CC4)cc3)ncc2C(F)(F)F)c1)S(C)(=O)=O` (stereo not drawn) [GT-03678, N-(3-(((2-((4-(4-(4-((2-(2,6-dioxopiperidin-3-yl)-1-oxoisoindolin-5-yl)methyl)piperazin-1-yl)piperidin-1-yl)phenyl)amino)-5-(trifluoromethyl)pyrimidin-4-yl)amino)methyl)phenyl)-N-methylmethanesulfonamide], the IC50 in the experiment on MDA-MB-231 is less than 50 nM. Turning to `Cc1nc2c(F)cc(-c3nc(Nc4ccc(N5CCN(Cc6ccc7c(c6)CN(C6CCC(=O)NC6=O)C7=O)CC5)cn4)ncc3F)cc2n1C(C)C` (stereo not drawn) [GT-03688, 3-(5-((4-(6-((5-fluoro-4-(4-fluoro-1-isopropyl-2-methyl-1H-benzo[d]imidazol-6-yl)pyrimidin-2-yl)amino)pyridin-3-yl)piperazin-1-yl)methyl)-1-oxoisoindolin-2-yl)piperidine-2,6-dione], the “IC50 for inhibiting the proliferation of tumor cells, SR” value with SR (Table 14, designed based on CDK4/6 inhibitors, 72 h) is reported as “A+”. `Cc1cnc(Nc2ccc(N3CCC(N(C)Cc4ccc5c(c4)CN(C4CCC(=O)NC4=O)C5=O)CC3)cc2)nc1Nc1cccc(S(=O)(=O)NC(C)(C)C)c1` (stereo not drawn) [GT-03690, N-(tert-butyl)-3-((2-((4-(4-(((2-(2,6-dioxopiperidin-3-yl)-1-oxoisoindolin-5-yl)methyl)(methyl)amino)piperidin-1-yl)phenyl)amino)-5-methylpyrimidin-4-yl)amino)benzenesulfonamide]: the IC50 in the experiment with MDA-MB-231 was less than 50 nM. Same read-out and setting: under `Cc1cnc(Nc2ccc(N3CCC(N4CCN(Cc5ccc6c(c5)CN(C5CCC(=O)NC5=O)C6=O)CC4)CC3)cc2)nc1Nc1cccc(S(=O)(=O)NC(C)(C)C)c1` (stereo not drawn) [GT-03709, N-(tert-butyl)-3-((2-((4-(4-(4-((2-(2,6-dioxopiperidin-3-yl)-1-oxoisoindolin-5-yl)methyl)piperazin-1-yl)piperidin-1-yl)phenyl)amino)-5-methylpyrimidin-4-yl)amino)benzenesulfonamide] stands 1000 to 5000 nM.

Consider `CNC(=O)c1ccccc1Nc1cc(Nc2ccc(N3CCN(Cc4cccc5c4CN(C4CCC(=O)NC4=O)C5=O)CC3)cc2OC)ncc1C(F)(F)F` (stereo not drawn) [GT-03718, 2-((2-((4-(4-((2-(2,6-dioxopiperidin-3-yl)-1-oxoisoindolin-4-yl)methyl)piperazin-1-yl)-2-methoxyphenyl)amino)-5-(trifluoromethyl)pyridin-4-yl)amino)-N-methylbenzamide], for which the IC50 with MDA-MB-231 lay within 1000 to 5000 nM; with SR (Table 18, FAK inhibitor based), 100 to 500 nM; with CAL-62, 100 to 500 nM. With `CNC(=O)c1ccccc1Nc1cc(Nc2ccc(N3CCC(N(C)Cc4cc5c(cc4F)C(=O)N(C4CCC(=O)NC4=O)C5)CC3)cc2OC)ncc1C(F)(F)F` (stereo not drawn) [GT-03729, 2-((2-((4-(4-(((2-(2,6-dioxopiperidin-3-yl)-6-fluoro-1-oxoisoindolin-5-yl)methyl)(methyl)amino)piperidin-1-yl)-2-methoxyphenyl)amino)-5-(trifluoromethyl)pyridin-4-yl)amino)-N-methylbenzamide], the IC50 is 50 to 100 nM in the experiment with MDA-MB-231; less than 50 nM with SR (Table 18, FAK inhibitor based); 50 to 100 nM in the experiment with CAL-62. For the compound `CNC(=O)c1ccccc1Nc1cc(Nc2ccc(N3CCC(N(C)Cc4cc(F)c5c(c4)CN(C4CCC(=O)NC4=O)C5=O)CC3)cc2OC)ncc1C(F)(F)F` (stereo not drawn) [GT-03730, 2-((2-((4-(4-(((2-(2,6-dioxopiperidin-3-yl)-7-fluoro-1-oxoisoindolin-5-yl)methyl)(methyl)amino)piperidin-1-yl)-2-methoxyphenyl)amino)-5-(trifluoromethyl)pyridin-4-yl)amino)-N-methylbenzamide], the IC50 in the experiment with MDA-MB-231 was 50 to 100 nM; in the experiment on SR (Table 18, FAK inhibitor based), less than 50 nM; with CAL-62 it was less than 50 nM.

As to `CNC(=O)c1ccccc1Nc1cc(Nc2ccc(N3CCC(N(C)Cc4cccc5c4CN(C4CCC(=O)NC4=O)C5=O)CC3)cc2OC)ncc1C(F)(F)F` (stereo not drawn) [GT-03731, 2-((2-((4-(4-(((2-(2,6-dioxopiperidin-3-yl)-1-oxoisoindolin-4-yl)methyl)(methyl)amino)piperidin-1-yl)-2-methoxyphenyl)amino)-5-(trifluoromethyl)pyridin-4-yl)amino)-N-methylbenzamide], the IC50 with MDA-MB-231 fell in the range of 1000 to 5000 nM; in the experiment on SR (Table 18, FAK inhibitor based), 50 to 100 nM; in the experiment with CAL-62, 500 to 1000 nM. Turning to `O=C1CCC(N2C(=O)c3ccc(CBr)cc3C2=O)C(=O)N1` (stereo not drawn) [GT-03788], the “IC50 for inhibiting the proliferation of tumor cells, CCRF-CEM” value with CCRF-CEM (Table 8, designed based on ER inhibitors) was “A+”. Regarding `Cn1ncc(-c2nc(NC3CCN(Cc4ccc5c(c4)CN(C4CCC(=O)NC4=O)C5=O)CC3)ncc2Cl)c1CC1CC1` (stereo not drawn) [GT-04044, 3-(5-((4-((5-chloro-4-(5-(cyclopropylmethyl)-1-methyl-1H-pyrazol-4-yl)pyrimidin-2-yl)amino)piperidin-1-yl)methyl)-1-oxoisoindolin-2-yl)piperidine-2,6-dione], the “IC50 for inhibiting the proliferation of tumor cells, CCRF-CEM” value with CCRF-CEM (setting [1]) is given as “A+”. On to `Cn1ncc(-c2nc(NC3CCN(Cc4ccc5c(c4F)CN(C4CCC(=O)NC4=O)C5=O)CC3)ncc2Cl)c1CC1CC1` (stereo not drawn) [GT-04045, 3-(5-((4-((5-chloro-4-(5-(cyclopropylmethyl)-1-methyl-1H-pyrazol-4-yl)pyrimidin-2-yl)amino)piperidin-1-yl)methyl)-4-fluoro-1-oxoisoindolin-2-yl)piperidine-2,6-dione], for which the “IC50 for inhibiting the proliferation of tumor cells, CCRF-CEM” value with CCRF-CEM (setting [1]) is “A+”. For the same compound, the “IC50 for inhibiting the proliferation of tumor cells, CAL-62” value in the experiment on CAL-62 (setting [1]) was “A+”. As to `Cn1ncc(-c2nc(NC3CCN(Cc4cc5c(cc4F)C(=O)N(C4CCC(=O)NC4=O)C5)CC3)ncc2Cl)c1CC1CC1` (stereo not drawn) [GT-04046, 3-(5-((4-((5-chloro-4-(5-(cyclopropylmethyl)-1-methyl-1H-pyrazol-4-yl)pyrimidin-2-yl)amino)piperidin-1-yl)methyl)-6-fluoro-1-oxoisoindolin-2-yl)piperidine-2,6-dione], in the experiment with CCRF-CEM (setting [1]), the “IC50 for inhibiting the proliferation of tumor cells, CCRF-CEM” value was “A+”. Besides, the “IC50 for inhibiting the proliferation of tumor cells, CAL-62” value in the experiment on CAL-62 (setting [1]) was “A+”.

As for `CNC(=O)c1ccccc1Nc1cc(Nc2cc(C)c(C3CCN(Cc4ccc5c(c4)C(=O)N(C4CCC(=O)NC4=O)C5=O)CC3)cc2OC(C)C)ncc1C(F)(F)F` (stereo not drawn) [GT-04083, 2-((2-((4-(1-((2-(2,6-dioxopiperidin-3-yl)-1,3-dioxoisoindolin-5-yl)methyl)piperidin-4-yl)-2-isopropoxy-5-methylphenyl)amino)-5-(trifluoromethyl)pyridin-4-yl)amino)-N-methylbenzamide], the IC50 in the experiment on CCRF-CEM (Homo sapiens, Table 18, FAK inhibitor based, CCRF-CEM, read-out: IC50 inhibiting proliferation of tumor cells, CCRF-CEM) is 100 to 500 nM.
